Experimental findings from publication PMC11480511 (Scientific Reports, 2024) are described below.

Holding throughout (assay): Western blot of protein expression in LOX IMVI cells
Common to all, as to format: cell-based, human
Holding throughout (conditions): control = 1
For orientation: A western blot detects proteins with antibodies after separation by electrophoresis.

The test system of one assay is active caspase-3. On the procedure:
(§1) To evaluate the expression level of the apoptosis modulatory markers Bax, caspase 3 and PARP-1, western blot was performed as formerly described. Three different groups of LOX IMVI cells were permitted to grow to reach 70–80% confluence in […] flasks. The first group of LOX IMVI cells was treated with compound 3i. […] The media was taken out after 48 h, and cells underwent three rounds of ice-cold PBS washing. RIPA lysis buffer [consisting of Tris-HCl pH 7.6 (25 mM), NaCl (150 mM), EDTA (5 mM), NP-40 or Triton X-100 (1%), sodium deoxycholate (1%), SDS1 (1%)] with the proper phosphatase and a protease inhibitor was used to create the whole-cell lysate for 30 min. After centrifuging the mixture at 12,000 rpm for 20 min and sonicating it for five minutes, the supernatant was collected, split into aliquots, and kept at -80 °C. The Biuret method was used to determine protein content[27],[28]. Proteins in each matched cell lysate were denatured in 2 Laemmli buffer containing 5% β--mercaptoethanol at 95 °C for 5 min. For SDS-PAGE electrophoresis, 20 µg of protein per lane were loaded at 100 volts through a 6% stacking gel, then at 125 volts through a 10% resolving gel for around 2 h, and then transferred to a PVDF membrane using a semidry transfer apparatus (made by Cleaver Scientific) for 25 min. The PVDF membrane was first incubated for one hour at 4 °C in TBS buffer containing 0.1% Tween (TBST) and 5% fat-free milk, then overnight at 4 °C with monoclonal anti-Bax, anti-PARP-1, and anti-caspase-3 as primary antibodies (Cell Signalling Technology) at a dilution of 1:500. Membranes were first treated overnight, then three times washed in TBST buffer, then incubated at room temperature for 60 min with the corresponding HRP (horse radish peroxidase)-linked secondary antibodies (Dako). Then the substrate for the chemiluminescent Western ECL (Perkin Elmer, Waltham, MA) was added to the blot as described by the manufacturer by incubating the membranes with equal volumes of ECL solution A and ECL solution B for 1 min.

The subject of a further assay is PARP-1. On the procedure:
as §1

The next assay concerns Bax. On the procedure: as §1

Molecules are shown by their SMILES.

`O=C(O)c1cn(C2CC2)c2cc(N3CCN(C(=O)CCCN4C(=O)S/C(=C\c5ccc(F)cc5)C4=O)CC3)c(F)cc2c1=O` [3i]: the “Caspace-3 Optical density (OD)” value with active caspase-3 came to 3.14. Also, in the assay on PARP-1, the “PARP-1 OD” value is 0.87. For the same compound, the “Bax OD” value in the assay with Bax stood at 4.13.
